Earlier results as cited in US20120101165A1, “Urea Compositions With Cooling Effect” (priority 2007, published 2012).
Where two headings read alike, the source gives them in different places.

Experiments:
[1] = endothermic
[2] = 20% urea solution
[3] = not given; remark: listed apart in the source

solubility in water (at 20° C.): 108 g/100 mL
solubility in water (at 100° C.): 733 g/100 mL
heat of solution in water [1]: about −57.8 cal/g
pH after storage ([2]; after 11 months at room temperature): 8.8
initial pH ([2]; initial): about 7.4
critical relative humidity ([3]; at 20° C.): about 81%
critical relative humidity ([3]; at 30° C.): about 73%
SMILES: NC(N)=O [urea, diaminomethanal]
